The values below come from PubChem BioAssay (NCI).

Among the test systems are COLO 205 colon; HCT-15 colon; IGROV1 ovarian; LOX IMVI melanoma; NCI-H226 lung; NCI-H522 lung; RXF 393 renal; SNB-19 CNS; SW-620 colon; BT-549 breast.
What all share (assay): growth of human tumour cells (NCI), 48 h

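Five concentrations, 48 hours, 96-well plates. Here, GI50 denotes the concentration required for 50% inhibition of growth. TGI: total growth inhibition.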 Bounds are passed on as bounds.

Take `COc1ccc(C(=O)Cc2cc(OC)ccc2OC)cc1`: the TGI in the test with COLO 205 colon, with HCT-15 colon, in the test on IGROV1 ovarian, in the test with LOX IMVI melanoma, with NCI-H226 lung and in the test with NCI-H522 lung was above 100 µM each time. Moreover, the TGI with RXF 393 renal, in the test on SNB-19 CNS and with SW-620 colon was above 100 µM in each case.
Turning to `C=C1C(=O)O[C@H]2C1[C@H](OC(=O)/C(C)=C\COC(C)=O)C[C@]1(CO1)[C@@H]1[C@H](O)[C@H]3O[C@@]3(C)[C@@H]12` (stereo not given in full), the TGI in the test with COLO 205 colon is 21.9 µM; with HCT-15 colon, above 56.1 µM; in the test on IGROV1 ovarian it was 59.8 µM; with LOX IMVI melanoma, 37.2 µM; in the test on NCI-H226 lung, 78.1 µM; in the test with NCI-H522 lung it was 22.8 µM. In addition, the TGI was 32.9 µM with RXF 393 renal, above 100 µM with SNB-19 CNS and 30.8 µM with SW-620 colon.
Take `COc1ccc(CNc2nc(NCc3ccc(OC)cc3)nc(NC3CCCCC3)n2)cc1`: the TGI turned out to be 37.9 µM in the test with BT-549 breast; 5.35 µM with COLO 205 colon; 9.52 µM with HCT-15 colon; 6.22 µM in the test with IGROV1 ovarian; 20.2 µM in the test with LOX IMVI melanoma; 5.71 µM with NCI-H226 lung. The TGI is 3.39 µM in the test on NCI-H522 lung, 5.96 µM with SNB-19 CNS and above 100 µM in the test on SW-620 colon.
Take `COc1ccc(/C=N/Nc2[nH]c(=S)nc3[nH]ncc23)cc1`: the TGI with BT-549 breast was above 100 µM; in the test on COLO 205 colon it was 47.9 µM; with HCT-15 colon, above 100 µM; in the test on IGROV1 ovarian it was 68.2 µM; in the test on LOX IMVI melanoma, above 100 µM; in the test with NCI-H226 lung, above 100 µM. Further, the TGI was 79.9 µM in the test on NCI-H522 lung, above 100 µM in the test with RXF 393 renal, 59.2 µM in the test on SNB-19 CNS and above 100 µM in the test with SW-620 colon.
With `CN(C)CCCn1c2ccccc2c2cnccc21`, the TGI with BT-549 breast is above 100 µM; in the test on COLO 205 colon it was 30.2 µM; in the test on HCT-15 colon, above 100 µM; in the test on IGROV1 ovarian, above 100 µM; in the test on LOX IMVI melanoma, 52.6 µM; with NCI-H226 lung, 59.7 µM. Besides, the TGI in the test with NCI-H522 lung, with RXF 393 renal, with SNB-19 CNS and in the test with SW-620 colon was above 100 µM each time.
On to `Cc1cc(NS(=O)(=O)c2ccc(Nc3c4ccccc4nc4c(C(=O)NCCN(C)C)ccc(Cl)c34)cc2)no1`, for which the TGI in the test with COLO 205 colon worked out at 14.9 µM; with HCT-15 colon, 19.5 µM; in the test with IGROV1 ovarian, 20.7 µM; with LOX IMVI melanoma it was 10.9 µM; in the test with NCI-H226 lung, 4.57 µM; in the test on NCI-H522 lung, 3.86 µM. Moreover, the TGI with RXF 393 renal worked out at 22.8 µM; in the test with SNB-19 CNS, 9.68 µM; in the test with SW-620 colon, 15.5 µM.
For `Cc1ncc([N+](=O)[O-])n1CCN=[N+]=[N-]`, the TGI with BT-549 breast, with COLO 205 colon, with HCT-15 colon, in the test with IGROV1 ovarian, in the test with NCI-H226 lung and in the test on NCI-H522 lung was above 100 µM in each case. Besides, the TGI in the test on RXF 393 renal, with SNB-19 CNS and in the test with SW-620 colon was above 100 µM in each case.
For `CCOC(=O)c1c2c(n(C)c1-c1ccccc1)C(=O)C(C)=CC2=O`, the TGI with BT-549 breast was 27.7 µM; in the test on COLO 205 colon, 4.5 µM; with HCT-15 colon, 17.7 µM; in the test with IGROV1 ovarian, 17.6 µM; with LOX IMVI melanoma, 13.2 µM; in the test on NCI-H226 lung, 24.9 µM. Also, the TGI in the test with NCI-H522 lung worked out at 5.83 µM; in the test on RXF 393 renal, 23.6 µM; in the test on SNB-19 CNS it was 26.7 µM; in the test with SW-620 colon, 19.8 µM.
For `O=S1(=O)NNC(=NCc2ccc(F)cc2)c2ccccc21`, the TGI in the test on BT-549 breast, in the test on COLO 205 colon, in the test on HCT-15 colon, in the test with IGROV1 ovarian, in the test on LOX IMVI melanoma and with NCI-H226 lung was above 100 µM throughout. Also, the TGI in the test with RXF 393 renal was above 69.3 µM; with SNB-19 CNS, above 100 µM; in the test on SW-620 colon, above 100 µM.
Regarding `COc1cn2c(cc1=O)COc1ccc(-c3ccccc3)cc1-2`, the TGI is above 82.9 µM in the test with BT-549 breast; above 100 µM in the test on COLO 205 colon; above 100 µM in the test with HCT-15 colon; above 100 µM with IGROV1 ovarian; above 85.5 µM in the test on LOX IMVI melanoma; above 100 µM with NCI-H226 lung. For the same compound, the TGI with NCI-H522 lung, in the test on RXF 393 renal, in the test with SNB-19 CNS and in the test on SW-620 colon was above 100 µM throughout.
For `CC(C)(C)OC(=O)NC(Cc1ccccc1)C(=O)N[C@H]1c2ccsc2/C(=N/O)[C@H]1O` (stereo not given in full), the TGI in the test with BT-549 breast, in the test on COLO 205 colon, in the test on HCT-15 colon, with IGROV1 ovarian, in the test on LOX IMVI melanoma and with NCI-H226 lung was above 100 µM throughout. Further, the TGI with RXF 393 renal, in the test with SNB-19 CNS and with SW-620 colon was above 100 µM throughout.
With `COc1cc(S(=O)(=O)Nc2nc(-c3ccc(N4C(=O)/C(=C/c5ccccc5)N=C4c4ccccc4)cc3)cs2)ccc1Cl`, the TGI with BT-549 breast was 75 µM; with COLO 205 colon, above 100 µM; with HCT-15 colon, above 100 µM; in the test on IGROV1 ovarian it was above 100 µM; in the test on LOX IMVI melanoma, above 100 µM; in the test on NCI-H226 lung it was above 100 µM. In addition, the TGI with NCI-H522 lung was above 100 µM; with RXF 393 renal, 91.7 µM; in the test on SNB-19 CNS, above 100 µM; with SW-620 colon it was above 100 µM.
Take `CC(C)=CCN(N=O)c1ncnc2nc[nH]c12`: the TGI in the test with COLO 205 colon, in the test on IGROV1 ovarian, with LOX IMVI melanoma, in the test with NCI-H226 lung, in the test with NCI-H522 lung and with RXF 393 renal was above 100 µM throughout. For the same compound, the TGI in the test on SNB-19 CNS and in the test on SW-620 colon was above 100 µM each time.
With `CCCCc1ccc2[n+](c1)C(C(=O)OCC)=PC2` (stereo not given), the TGI in the test with BT-549 breast, in the test with COLO 205 colon, in the test on HCT-15 colon, with IGROV1 ovarian, in the test on NCI-H522 lung and with RXF 393 renal was above 100 µM in each case. Also, the TGI in the test on SW-620 colon is above 100 µM.
`O=C1c2ccccc2-c2ccc(NC(=O)C3CCCCC3C(=O)O)cc21` (stereo not given): the TGI in the test on BT-549 breast, with COLO 205 colon, with HCT-15 colon, in the test on IGROV1 ovarian, with LOX IMVI melanoma and with NCI-H226 lung was above 100 µM throughout. The TGI in the test on NCI-H522 lung, in the test with RXF 393 renal, in the test with SNB-19 CNS and in the test on SW-620 colon was above 100 µM throughout.
In the case of `COc1cc(C2C(Cl)C(=O)N2c2ccc(Br)cc2)cc(I)c1O` (stereo not given), the TGI in the test on BT-549 breast is above 100 µM; in the test with COLO 205 colon, above 100 µM; in the test on HCT-15 colon, above 100 µM; in the test on IGROV1 ovarian, 24.6 µM; in the test on LOX IMVI melanoma, above 100 µM; in the test on NCI-H522 lung, above 100 µM. For the same compound, the TGI with SNB-19 CNS and in the test on SW-620 colon was above 100 µM each time.
Turning to `COc1cc(N=Nc2cccc(S(=O)(=O)O)c2)c(C)cc1N=Nc1ccc(/C=C/c2ccc(N=[N+]([O-])c3ccc(/C=C/c4ccc(N=Nc5cc(C)c(N=Nc6cccc(S(=O)(=O)O)c6)cc5OC)cc4)c(S(=O)(=O)O)c3)cc2S(=O)(=O)O)cc1`, the TGI in the test with COLO 205 colon, in the test with HCT-15 colon, in the test on IGROV1 ovarian, in the test on LOX IMVI melanoma, in the test on NCI-H226 lung and in the test with NCI-H522 lung was above 100 µM throughout. Moreover, the TGI with RXF 393 renal, with SNB-19 CNS and in the test with SW-620 colon was above 100 µM each time.
With `COc1ccccc1C1C(C#N)=C(N)OC2=C1C(=O)CCC2` (stereo not given), the GI50 was above 100 µM with BT-549 breast; above 100 µM in the test on COLO 205 colon; above 100 µM with HCT-15 colon; above 100 µM with IGROV1 ovarian; above 100 µM in the test with LOX IMVI melanoma; 74.2 µM with NCI-H226 lung. Also, the GI50 in the test with NCI-H522 lung, in the test on RXF 393 renal, in the test with SNB-19 CNS and in the test with SW-620 colon was above 100 µM in each case. Further, the TGI in the test on BT-549 breast, with COLO 205 colon, in the test on HCT-15 colon, in the test on IGROV1 ovarian, in the test with LOX IMVI melanoma and in the test with NCI-H226 lung was above 100 µM throughout. The TGI with NCI-H522 lung, in the test on RXF 393 renal, in the test on SNB-19 CNS and with SW-620 colon was above 100 µM in each case.
